As a reminder, the IC50 is the concentration that inhibits the measured activity by half.

Read-outs that look alike come from different tables or passages of the source.

The record followed here is patent publication US8324246B2, “Indol carboxylic acid bispyridyl carboxamide derivatives, pharmaceutically acceptable salt thereof, preparation method and composition containing the same as an active ingredient” (Korea Research Institute of Chemical Technology, priority 2008, dated 2012).

For experiment [1], the target named is T1, human gene recombinant 5-HT2c receptor expressed in CHO-K1 cell (Homo sapiens, UniProt P28335).
T1 construct: purchased Euroscreen, Belgium; host or cells: CHO-K1
T1 sequence (P28335 33-458): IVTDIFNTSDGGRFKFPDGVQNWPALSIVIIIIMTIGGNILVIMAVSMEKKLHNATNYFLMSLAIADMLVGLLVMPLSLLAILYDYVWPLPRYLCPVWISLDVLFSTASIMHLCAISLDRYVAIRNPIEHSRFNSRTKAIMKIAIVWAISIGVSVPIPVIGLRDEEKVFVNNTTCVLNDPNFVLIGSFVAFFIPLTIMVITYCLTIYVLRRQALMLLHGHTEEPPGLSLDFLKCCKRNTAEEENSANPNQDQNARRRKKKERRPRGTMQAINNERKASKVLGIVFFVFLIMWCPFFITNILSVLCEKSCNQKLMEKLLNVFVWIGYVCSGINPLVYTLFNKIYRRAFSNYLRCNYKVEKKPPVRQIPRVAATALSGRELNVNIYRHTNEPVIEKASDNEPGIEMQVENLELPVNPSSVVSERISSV
The experiment in a line: Binding affinity to the serotonin 5-HT2c receptor ([3H]mesulergine). As for the experimental part:
As a receptor, a human gene recombinant 5-HT2c receptor expressed in CHO—K1 cell was purchased from Euroscreen, Belgium and used in the experiment, and as a radioactive isotope, [3H]mesulergine (Amersham Biosciences, UK).
A final volume of 0.25 ml reaction mixture was prepared by adding 50 mM Tris-HCl buffer (pH 7.7) containing one of the compounds in Examples 1-29 or Comparative Examples 1-2, 1 nM of [3H]mesulergine, 5-HT2c receptor membranes (4 D/well), 0.1% ascorbic acid and 10 µM pargyline, and incubated at 37° C. for 30 minutes. After incubation, the reaction was terminated by the rapid filtration using an Inotech harvester (Inotech) through a Wallace GF/C glass fiber filter (Wallac, Finland) which was presoaked in 1% BSA, and then washed with ice-cold 50 mM Tris-HCl buffer. The filter was covered with MeltiLex, sealed in a sample bag followed by drying in the oven, and counted by MicroBeta Plus (Wallac). Non-specific binding was determined in the presence of […] Mianserin. Three repeating experiments were carried out with 7-8 concentrations of the compound in Examples 1-29 or the compound in comparative examples 1-2, run in duplicate tubes, and isotherms from the three assays were calculated by a nonlinear regression analysis (GraphPad Prism Program, San Diego, USA) to yield IC50 values.

For the next experiment, the target named is T2, 5-HT1a (Homo sapiens, UniProt P08908).
T2 sequence (P08908 1-422): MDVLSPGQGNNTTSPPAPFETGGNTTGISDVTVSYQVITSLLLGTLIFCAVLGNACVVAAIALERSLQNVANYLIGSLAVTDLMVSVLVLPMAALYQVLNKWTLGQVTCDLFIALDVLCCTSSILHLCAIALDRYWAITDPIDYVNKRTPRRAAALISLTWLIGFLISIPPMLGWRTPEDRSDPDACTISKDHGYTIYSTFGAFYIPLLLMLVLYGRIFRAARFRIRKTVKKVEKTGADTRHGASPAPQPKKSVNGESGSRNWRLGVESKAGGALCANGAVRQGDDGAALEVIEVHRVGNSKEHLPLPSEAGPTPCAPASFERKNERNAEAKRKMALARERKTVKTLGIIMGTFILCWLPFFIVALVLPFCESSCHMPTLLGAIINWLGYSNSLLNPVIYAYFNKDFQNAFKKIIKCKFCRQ
The experiment in a line: Receptor selectivity binding, 5-HT1a. The conditions noted are these: Table 3. As for the experimental part: (§1) For their high binding affinities for 5-HT2c, compounds in Examples 14 to 18, 20, and 22 or in Comparative Example 1 were used for the experiment with reaction mixtures. Except that CNS receptors such as 5-HT1a, 5-HT2a, 5-HT7, D2, D3 or D4 other than 5-HT2c were used as a receptor, IC50 values (nM) were measured in the same manner as in Experimental Example 1.

A further experiment has as its target 5-HT2a (Homo sapiens, UniProt P28223). The experiment in a line: Receptor selectivity binding, 5-HT2a. The conditions noted are these: Table 3. As for the experimental part: as §1
For the next experiment, the target named is 5-HT6 (Homo sapiens, UniProt P50406). The experiment in a line: Receptor selectivity binding, 5-HT6. To be noted: Table 3. The protocol:
as §1

For the next experiment, the target named is 5-HT7 (Homo sapiens, UniProt P34969). The experiment in a line: Receptor selectivity binding, 5-HT7. To be noted: Table 3. The protocol: as §1
The target in a further experiment is D2 (Homo sapiens, UniProt P14416). The experiment in a line: Receptor selectivity binding, D2. The conditions noted are these: Table 3. The protocol: as §1
In another experiment the target is D3 (Homo sapiens, UniProt P35462). Kind of experiment: Receptor selectivity binding, D3. The conditions noted are these: Table 3. As for the experimental part:
as §1

The target of another experiment is T3, D4 (Homo sapiens, UniProt P21917).
T3 sequence (P21917 1-419): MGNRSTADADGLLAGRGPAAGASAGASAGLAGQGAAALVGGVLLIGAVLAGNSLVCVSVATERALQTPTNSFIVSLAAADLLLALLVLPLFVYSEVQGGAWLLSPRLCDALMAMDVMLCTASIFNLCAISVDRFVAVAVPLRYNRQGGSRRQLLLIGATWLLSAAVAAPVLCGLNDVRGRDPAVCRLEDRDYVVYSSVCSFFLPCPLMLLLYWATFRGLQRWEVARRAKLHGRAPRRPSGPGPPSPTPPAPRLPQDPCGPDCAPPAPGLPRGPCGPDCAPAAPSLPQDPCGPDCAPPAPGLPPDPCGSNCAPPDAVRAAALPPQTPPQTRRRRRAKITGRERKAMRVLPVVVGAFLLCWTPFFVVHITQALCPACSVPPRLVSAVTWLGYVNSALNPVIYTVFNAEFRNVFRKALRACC
The experiment in a line: Receptor selectivity binding, D4. To be noted: Table 3. As for the experimental part: as §1

A further experiment deals with T4, human 5-HT2c receptors (Homo sapiens, UniProt P28335).
T4 sequence (P28335 33-458): T1 sequence (P28335 33-458)
The conditions noted are these: for Inhibition rate of serotonin (5-HT)-induced [35S]GTPS increase: 30 µM serotonin.

[2] abbreviates: [3H]mesulergine 1 nM, 37° C. 30 minutes, Table 2, read-out: IC50.

Sequence of 5-HT2a (P28223 whole entry, species assumed): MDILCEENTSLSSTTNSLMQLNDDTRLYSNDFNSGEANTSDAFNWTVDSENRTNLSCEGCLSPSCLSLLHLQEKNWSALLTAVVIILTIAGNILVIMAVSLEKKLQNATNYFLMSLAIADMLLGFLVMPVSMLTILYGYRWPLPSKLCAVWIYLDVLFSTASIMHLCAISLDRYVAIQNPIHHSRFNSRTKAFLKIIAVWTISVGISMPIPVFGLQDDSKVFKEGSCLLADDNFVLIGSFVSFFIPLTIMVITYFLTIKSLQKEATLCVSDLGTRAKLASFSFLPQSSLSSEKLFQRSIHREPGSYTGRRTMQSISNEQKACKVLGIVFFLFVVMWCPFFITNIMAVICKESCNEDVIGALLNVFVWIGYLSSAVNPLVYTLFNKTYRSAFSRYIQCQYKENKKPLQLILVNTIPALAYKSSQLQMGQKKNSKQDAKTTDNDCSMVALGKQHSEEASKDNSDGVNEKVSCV
Sequence of D2 (P14416 whole entry): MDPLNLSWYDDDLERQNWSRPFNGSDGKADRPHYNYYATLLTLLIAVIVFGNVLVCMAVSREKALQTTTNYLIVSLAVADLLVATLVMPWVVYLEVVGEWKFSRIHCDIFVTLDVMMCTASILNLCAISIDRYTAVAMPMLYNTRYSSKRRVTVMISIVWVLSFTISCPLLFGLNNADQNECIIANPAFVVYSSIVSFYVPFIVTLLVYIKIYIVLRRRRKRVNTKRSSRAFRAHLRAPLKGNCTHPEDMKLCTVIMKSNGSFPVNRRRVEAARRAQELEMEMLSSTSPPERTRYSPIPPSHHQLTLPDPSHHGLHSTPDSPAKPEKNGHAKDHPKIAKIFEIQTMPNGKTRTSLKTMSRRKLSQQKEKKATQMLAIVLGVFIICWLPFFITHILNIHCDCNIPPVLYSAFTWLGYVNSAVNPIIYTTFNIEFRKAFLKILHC
Sequence of D3 (P35462 whole entry): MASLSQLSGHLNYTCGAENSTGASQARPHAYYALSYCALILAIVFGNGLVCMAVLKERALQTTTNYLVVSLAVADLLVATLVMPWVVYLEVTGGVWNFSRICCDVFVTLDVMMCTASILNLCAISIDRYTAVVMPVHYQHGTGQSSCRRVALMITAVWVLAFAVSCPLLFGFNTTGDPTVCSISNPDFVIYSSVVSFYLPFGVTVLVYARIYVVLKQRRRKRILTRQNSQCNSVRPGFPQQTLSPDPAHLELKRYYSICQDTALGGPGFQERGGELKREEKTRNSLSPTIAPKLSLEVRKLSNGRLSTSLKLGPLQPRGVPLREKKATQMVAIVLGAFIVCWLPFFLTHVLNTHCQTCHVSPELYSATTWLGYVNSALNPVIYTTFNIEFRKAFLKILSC
Sequence of 5-HT7 (P34969 whole entry, species assumed): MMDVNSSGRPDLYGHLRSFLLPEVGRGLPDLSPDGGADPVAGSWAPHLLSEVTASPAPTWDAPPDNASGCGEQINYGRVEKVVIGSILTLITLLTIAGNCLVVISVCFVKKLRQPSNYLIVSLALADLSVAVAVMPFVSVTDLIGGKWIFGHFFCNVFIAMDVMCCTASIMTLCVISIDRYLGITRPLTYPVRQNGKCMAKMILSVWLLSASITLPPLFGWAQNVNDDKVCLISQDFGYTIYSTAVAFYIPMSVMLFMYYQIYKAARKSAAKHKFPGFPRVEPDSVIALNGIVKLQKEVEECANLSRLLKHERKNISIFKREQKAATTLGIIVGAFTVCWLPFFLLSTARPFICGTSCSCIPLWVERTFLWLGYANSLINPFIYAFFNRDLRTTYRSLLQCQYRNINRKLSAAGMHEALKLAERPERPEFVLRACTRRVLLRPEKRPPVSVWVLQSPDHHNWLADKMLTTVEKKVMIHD
Sequence of 5-HT6 (P50406 whole entry, species assumed): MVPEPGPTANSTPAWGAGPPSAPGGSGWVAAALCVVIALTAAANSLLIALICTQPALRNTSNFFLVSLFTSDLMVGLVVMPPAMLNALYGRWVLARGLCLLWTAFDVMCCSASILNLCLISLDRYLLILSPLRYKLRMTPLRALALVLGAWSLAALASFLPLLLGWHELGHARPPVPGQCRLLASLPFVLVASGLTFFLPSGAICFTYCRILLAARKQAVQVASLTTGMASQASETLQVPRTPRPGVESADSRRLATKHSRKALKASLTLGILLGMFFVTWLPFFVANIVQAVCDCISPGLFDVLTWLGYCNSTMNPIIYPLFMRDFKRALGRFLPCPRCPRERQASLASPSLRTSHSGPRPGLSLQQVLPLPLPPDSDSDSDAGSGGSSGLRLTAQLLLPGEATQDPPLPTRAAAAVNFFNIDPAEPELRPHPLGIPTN

For `Cc1ccc2[nH]cc(C(=O)Nc3ccc(Oc4cccnc4C)nc3)c2c1` [Example 14, 5-methyl-1H-indole-3-carboxylic acid[6-(2-methyl-pyridine-3-yloxy)-pyridine-3-yl]-amide], the half-maximal inhibitory concentration (IC50) in experiment [1] (Table 3, read-out: IC50 5-HT2c) was 0.0045 µM; in experiment [1] (setting [2]) it was 0.0045 µM; at 5-HT1a, more than 10 µM; on 5-HT2a it was more than 1 µM; at 5-HT6 it was more than 10 µM; at 5-HT7 it was more than 10 µM. For the same compound, the 50% inhibitory concentration (IC50) at D2, at D3 and on D4 was more than 10 µM each time.

With `COc1ccc2[nH]cc(C(=O)Nc3ccc(Oc4cccnc4C)nc3)c2c1` [Example 15, 5-methoxy-1H-indole-3-carboxylic acid[6-(2-methyl-pyridine-3-yloxy)-pyridine-3-yl]-amide], the IC50 in [1] (Table 3, read-out: IC50 5-HT2c) was 0.0107 µM; in [1] (setting [2]), 0.0107 µM; at 5-HT1a, more than 10 µM; at 5-HT2a it was more than 10 µM; at 5-HT6, more than 10 µM; at 5-HT7, more than 10 µM. The IC50 on D2, at D3 and at D4 was more than 10 µM in each case.

`Cc1ccc2c(C(=O)Nc3ccc(Oc4cccnc4C)nc3)c[nH]c2c1` [Example 16, 6-methyl-1H-indole-3-carboxylic acid[6-(2-methyl-pyridine-3-yloxy)-pyridine-3-yl]-amide]: the half-inhibitory concentration (IC50) in experiment [1] (Table 3, read-out: IC50 5-HT2c) was 0.0019 µM; in [1] (setting [2]) it was 0.0019 µM; on 5-HT1a, more than 10 µM; at 5-HT2a, more than 10 µM; at 5-HT6, more than 10 µM; at 5-HT7, more than 10 µM. Further, the IC50 on D2, on D3 and on D4 was more than 10 µM each time.

On to `Cc1ncccc1Oc1ccc(NC(=O)c2c[nH]c3c(C)cccc23)cn1` [Example 17, 7-methyl-1H-indole-3-carboxylic acid[6-(2-methyl-pyridine-3-yloxy)-pyridine-3-yl]-amide], for which the IC50 in experiment [1] (Table 3, read-out: IC50 5-HT2c) was 0.0082 µM; in experiment [1] (setting [2]), 0.0082 µM; on 5-HT1a it was more than 10 µM; at 5-HT2a, more than 10 µM; at 5-HT6 it was more than 10 µM; on 5-HT7, more than 10 µM. Besides, the IC50 on D2, on D3 and on D4 was more than 10 µM throughout.

As for `Cc1ncccc1Oc1ccc(NC(=O)c2c[nH]c3ccc(I)cc23)cn1` [Example 18, 5-iodo-1H-indole-3-carboxylic acid[6-(2-methyl-pyridine-3-yloxy)-pyridine-3-yl]-amide], the IC50 was 0.00062 µM in [1] (Table 3, read-out: IC50 5-HT2c); 0.0006 µM in [1] (setting [2]); 0.78 µM on 5-HT1a; 0.0847 µM on 5-HT2a; more than 1 µM at 5-HT6; more than 1 µM on 5-HT7. The IC50 at D2 was more than 10 µM; on D3, more than 1 µM; at D4, more than 1 µM.

Turning to `O=C(Nc1ccc(OCc2ccccn2)nc1)c1c[nH]c2ccccc12` [Example 20, 1H-indole-3-carboxylic acid[6-(pyridine-2-ylmethoxy)-pyridine-3-yl]-amide], the IC50 was 0.0059 µM in experiment [1] (Table 3, read-out: IC50 5-HT2c); 0.0059 µM in [1] (setting [2]); more than 10 µM on 5-HT1a; more than 10 µM at 5-HT2a; more than 1 µM on 5-HT6; more than 10 µM on 5-HT7. Further, the IC50 on D2, at D3 and at D4 was more than 10 µM each time.

Regarding `O=C(Nc1ccc(Oc2cccnc2Cl)nc1)c1c[nH]c2ccccc12` [Example 22, 1H-indole-3-carboxylic acid[6-(2-chloro-pyridine-3-yloxy)-pyridine-3-yl]-amide], the 50% inhibitory concentration (IC50) was 0.0005 µM in experiment [1] (Table 3, read-out: IC50 5-HT2c); 0.0005 µM in experiment [1] (setting [2]); more than 10 µM on 5-HT1a; more than 1 µM on 5-HT2a; more than 10 µM on 5-HT6; more than 10 µM at 5-HT7. Also, the IC50 at D2 was more than 10 µM; on D3 it was more than 10 µM; on D4, more than 1 µM; on human 5-HT2c receptors (read-out: IC50, antagonist activity on serotonin (5-HT)-induced GTP level increase, 30 M serotonin), 0.59 µM. Also, the “Inhibition rate of serotonin (5-HT)-induced [35S]GTPS increase” value on human 5-HT2c receptors (concentration 0.001 µM) was 0%; on human 5-HT2c receptors (concentration 0.01 µM) it was 1%; on human 5-HT2c receptors (concentration 0.1 µM), 9%; at human 5-HT2c receptors (concentration 1 µM), 67%; on human 5-HT2c receptors (concentration 10 µM) it was 100%.

On to `Cc1cc2c(cc1Cl)N(C(=O)Nc1ccc(Oc3cccnc3C)nc1)CC2` [SB242084, reference compound], for which the “inhibition of the 5-HT-induced increase in [35S]GTPS concentration level” value at human 5-HT2c receptors (control 5-HT2c antagonist) is given as “inhibited”.
